Laboratory results taken from patent publication US7015249B1, “Methods and compositions for treating diabetes” (Purdue Research Foundation, priority 1997, dated 2006).
Marks after values point to notes of the source that are not given here.

How the values were obtained:
Zucker rats = assay: Plasma insulin, triglyceride and free fatty acid concentrations in Zucker rats; assay type: in vivo, rat; details: fed, diets 14 days
From the text: Diet components were obtained from Dyets, Inc. (Bethlehem, Pa.) and the CLA isomeric mixture (90% pure mixture) from PharmaNutrients, Chicago, Ill. The CLA mixture had the following isomeric distribution: 42% of a composition including cis,trans-9,11 and trans,cis-9,11-octadecadienoic acid; 43.5% trans,cis-10,12-octadecadienoic acid; 1% cis,cis-9,11-octadecadienoic acid; 1% cis,cis-10,12-octadecadienoic acid; and 1.5% of a composition including trans,trans-9,11-octadecadienoic acid and trans,trans-10,12-octadecadienoic acid, all on a weight percent basis. The CLA mixture also included, on a weight percent basis, about 0.5% linoleate, about 5.5% oleate and about 5% other lipids as discussed above. The thiazolidinedione, TZD (Rezulin™, Parke-Davis, Ann Arbor, MI), was used as a positive control for anti-diabetic activity in these studies. Male Zucker fatty (fa/fa) rats and lean littermates (wt) were obtained at six weeks of age from Genetic Models, Inc. (Indianapolis, Ind.). Because the primary aim of the study was to determine the ability of CLA to improve insulin action and prevent the onset of diabetes, all rats were determined normoglycemic prior to assignment to experimental treatments. After maintaining rats on experimental diets for 14 days, rats were euthanized by CO2 and cervical dislocation and blood collected and immediately analyzed for post-prandial glucose concentrations (see below) or placed into heparinized test tubes for plasma analyses as described below. Epididymal fat pads and livers were harvested and weighed. An aliquot of the epididymal fat pad was isolated into buffered saline for glucose transport analyses and the remaining epididymal fat pad and gastrocnemius muscle were isolated, immediately frozen in liquid nitrogen and stored at −80° C. until mRNA and protein analyses were performed. Three isocaloric, experimental diets were formulated according to a modified AIN-76 mixture containing 6.5% (by weight) fat (diet described in American Institute of Nutrition: Report of the American Institute of Nutrition Ad Hoc Committee on Standards for Nutritional Studies, J. Nutr. 107 1340–1348 (1977) but includes 6.5% by weight fat instead of 5% by weight fat). […] Body weights were measured twice weekly and average food consumption estimated by measuring differences in weight of freshly supplied diet and diet remaining in feeders two days later. […] Blood glucose levels were determined using a One Touch glucose meter (Lifescan, Inc.). Plasma insulin levels were determined using commercially available radioimmunoassay kits (Linco Research, St. Charles, Mo.). Plasma nonesterified fatty acids were quantified using a calorimetric kit (Wako). Plasma triglyceride concentrations were determined using a commercially available kit (Sigma Diagnostics, St. Louis, Mo.).

ACO and mAP2 mRNA = assay: Tissue-specific gene expression (ACO, mAP2) by RT-PCR in rats fed experimental diets; assay type: in vivo, rat; details: diet 14 days, 1.5% CLA or 0.2% troglitazone, vs control diet
Method: Male Zucker fatty (fa/fa) rats and lean littermates (wt) were obtained at six weeks of age from Genetic Models, Inc. (Indianapolis, Ind.). Because the primary aim of the study was to determine the ability of CLA to improve insulin action and prevent the onset of diabetes, all rats were determined normoglycemic prior to assignment to experimental treatments. (The diets are discussed in the subsequent section). After maintaining rats on experimental diets for 14 days, rats were euthanized by CO2 and cervical dislocation and tissues collected, weighed and frozen. RT-PCR was performed as described above. The genes utilized as markers of tissue and subtype specific PPAR activation included Acyl-CoA Oxidase (ACO; found in the liver and induced by PPARα activation), Adipocyte Specific Protein (mAP2; found in adipose tissue and induced by activation of PPARγ) and ACO in the muscle (induced by PPARβ). […] Body weights were measured twice weekly and average food consumption estimated by measuring differences in weight of freshly supplied diet and diet remaining in feeders two days later. […]

Which “Free Fatty Acids + S.D.” value (Zucker rats; fa/fa rats) does the source give for `Cc1c(C)c2c(c(C)c1O)CCC(C)(COc1ccc(CC3SC(=O)NC3=O)cc1)O2` (centres unmarked) [Troglitazone] here?
The value was 0.778 + 0.378^c mMol.

What about the “Plasma Triglycerides ± S.D.” value (Zucker rats; fa/fa rats) of the same compound?
Its value is 57.08 ± 12.3^c mg/dl.

What about the “Free Fatty Acids + S.D.” value (Zucker rats; wt (lean) rats) of the same compound?
Its value is 1.139 + 0.277^c mMol.

What about the “Plasma Triglycerides ± S.D.” value (Zucker rats; wt (lean) rats) of the same compound?
Its value is 61.1 ± 12.1^c mg/dl.

And the “ACO mRNA expression in tissue with predominantly PPARβ (muscle)” value (ACO and mAP2 mRNA)?
The value was “no effect”.
